The test in a line: Inhibitory activity against Protein kinase C beta isoform (PKC) from pig spleen.

SMILES strings stand for the structures.

This note sets out measurements from BindingDB's records for doi:10.1016/s0960-894x(99)00210-3 (Tartu University, 1999).

What is called IC50 is the concentration at which inhibition is half-maximal. A low value points to higher potency.

Compound `N=C(N)NCCC[C@H](NC(=O)[C@H](CCCNC(=N)N)NC(=O)[C@H](CCCNC(=N)N)NC(=O)[C@H](CCCNC(=N)N)NC(=O)[C@H](CCCNC(=N)N)NC(=O)[C@H](CCCNC(=N)N)NC(=O)CCNC(=O)[C@H]1OC(n2cnc3c(N)ncnc32)[C@H](O)[C@@H]1O)C(=O)O` (stereo partly specified) returned an IC50 of 3000 nM.

As to `N=C(N)NCCC[C@H](NC(=O)[C@H](CCCNC(=N)N)NC(=O)[C@H](CCCNC(=N)N)NC(=O)[C@H](CCCNC(=N)N)NC(=O)[C@H](CCCNC(=N)N)NC(=O)[C@H](CCCNC(=N)N)NC(=O)CCCNC(=O)[C@H]1OC(n2cnc3c(N)ncnc32)[C@H](O)[C@@H]1O)C(=O)O` (stereo partly specified), the IC50 was 1500 nM. For `C[C@H](NC(=O)C[C@H](NC(=O)C[C@H](NC(=O)[C@H]1O[C@@H](n2cnc3c(N)ncnc32)[C@H](O)[C@@H]1O)C(=O)O)C(=O)O)C(=O)N[C@@H](CCCNC(=N)N)C(=O)N[C@@H](CCCNC(=N)N)C(=O)N[C@@H](CCCNC(=N)N)C(=O)N[C@@H](CCCNC(=N)N)C(=O)N[C@@H](CCCNC(=N)N)C(=O)N[C@@H](CCCNC(=N)N)C(=O)O`, the IC50 was 27000 nM.

With `N=C(N)NCCC[C@H](NC(=O)[C@H](CCCNC(=N)N)NC(=O)[C@H](CCCNC(=N)N)NC(=O)[C@H](CCCNC(=N)N)NC(=O)[C@H](CCCNC(=N)N)NC(=O)[C@H](CCCNC(=N)N)NC(=O)CNC(=O)[C@H]1OC(n2cnc3c(N)ncnc32)[C@H](O)[C@@H]1O)C(=O)O` (stereo partly specified), the IC50 turned out to be 10000 nM. With `C[C@H](NC(=O)CCNC(=O)CCNC(=O)[C@H]1OC(n2cnc3c(N)ncnc32)[C@H](O)[C@@H]1O)C(=O)N[C@@H](CCCNC(=N)N)C(=O)N[C@@H](CCCNC(=N)N)C(=O)N[C@@H](CCCNC(=N)N)C(=O)N[C@@H](CCCNC(=N)N)C(=O)N[C@@H](CCCNC(=N)N)C(=O)N[C@@H](CCCNC(=N)N)C(=O)O` (stereo partly specified), the IC50 turned out to be 2800 nM.

Compound `CC(=O)NCCCCCC(=O)N[C@@H](CCCN=C(N)N)C(=O)N[C@@H](CCCNC(=N)N)C(=O)N[C@@H](CCCNC(=N)N)C(=O)N[C@@H](CCCNC(=N)N)C(=O)N[C@@H](CCCNC(=N)N)C(=O)N[C@@H](CCCN=C(N)N)C(=O)O` [(R)-2-{(R)-2-[2-((R)-2-{(R)-2-[2-(6-Acetylamino-hexanoylamino)-5-guanidino-pentanoylamino]-5-guanidino-pentanoylamino}-5-guanidino-pentanoylamino)-5-guanidino-pentanoylamino]-5-guanidino-pentanoylamino}-5-guanidino-pentanoic acid] returned an IC50 greater than 100000 nM.
